In patent publication US11241480B2, “Methods for modulation of dietary and microbial exposure with compositions comprising an EGFR ligand” (Washington University, priority 2017, dated 2022):
“Also recorded” adds a separate entry of the source.

Assays:
C57BL/6 mice = assay: Oral tolerance and delayed type hypersensitivity (DTH) response to Ova; type: in vivo
Protocol: Antibiotic treatment: Mice were given a combination of antibiotics (Abx) ampicillin (1 g/L), metronidazole (1 g/L), neomycin (1 g/L), and vancomycin (500 mg/L) in drinking water for the time periods outlined in the figure legends.
EGFRi treatment: Mice were injected with 500 μg/kg tyrphostin AG1478 (an inhibitor of EGFR phosphorylation) in the neonatal, post-neonatal, or weaned phase on DOLs noted in the text or figure legends.
Oral tolerance and Delayed Type Hypersensitivity Responses: Mice, and/or nursing dams, when treated prior to weaning, were given Ova 20 g/L in drinking water, or drinking water alone for the intervals defined in the figure legend. Four weeks and six weeks following dietary Ova exposure mice were immunized subcutaneously with 100 μg Ova in incomplete Freund's Adjuvant (Sigma Aldrich). Two weeks after the last immunization mice were challenged with 20 μg Ova in the footpad, body temperature monitored for one hour, and the increase in footpad thickness evaluated using measurements taken with micrometer calipers taken before and 24 hours after challenge. To directly evaluate colonic antigen delivery and blockade of GAPs in the development of tolerance, enemas containing Ova 10 μg/gm body weight with or without 10 μg EGF were administered intrarectally every other day five times from DOL 14 to 22 (post-neonatal phase) or DOL 56 to 64 (adult). Mice were rested three weeks, and then systemically immunized and challenged in the footpad as above.

[1] = system: goblet cell associated antigen passages (GAPs); assay: Enumeration of goblet cell associated antigen passages (GAPs) in SI and colon by in vivo two-photon imaging and fixed sections; design: species or system mice
Protocol: Intravital two-photon (2P) microscopy: Mice were anesthetized using nebulized isofluorane in 95% O2/5% CO2. Intravital preparation of the intestine was performed as previously described. To detect GAPs, lysine fixable fluorescently-labeled dextran 10,000 MW (10 mg/mL) and diamidino-2-phenylindole (DAPI; 10 mg/mL) were injected intraluminally 20 minutes prior to imaging, and imaging was performed for up to one hour. To detect paracellular leak fluorescently labeled dextran 3,000 MW (10 mg/mL) and DAPI (10 mg/mL) were injected intraluminally 20 minutes prior to imaging. To detect the extension of trans-epithelial dendrites by APCs, CD11c^YFP or CX3CR1^GFP were imaged as above using 10,000 MW fluorescent dextran to outline the epithelial surface. Tissues were excited using a Ti:sapphire laser tuned to 890 nm (Chameleon X R, Coherent). Time-lapse imaging was performed with a custom-built 2P microscope running ImageWarp acquisition software (A&B Software, New London, Conn.). Epithelial integrity was assessed by dextran and DAPI staining as described. Following imaging, tissues were placed in 10% formalin buffered phosphate solution (Fisher Scientific) to fix dextrans in place to confirm 2P findings and for further analysis by immunofluorescence microscopy.
In some experiments mice were treated with 150 μg/kg carbachol chloride i.p. 10 minutes before dextran, 100 mg/kg tropicamide (mAChR4 selective antagonist) i.p. 20 minutes before dextran, 500 μg/kg tyrphostin AG1478 (inhibitor of EGFR phosphorylation) i.p. 20 minutes before dextran, 10 mg/kg U-0126 (inhibitor of p42/p44 MAPK phosphorylation) i.p. 20 minutes before dextran, 1-1000 ng EGF (Shenandoah Biotechnologies) injected intraluminally 20 minutes before dextran, 10 μg LPS injected intraluminally 20 minutes before dextran, or 100 μl stomach contents from a DOL 10 mice, or 100 μl heat killed cecal contents from SPF housed adult mice injected intraluminally 20 minutes before dextran was administered. All reagents from Sigma Aldrich, St. Louis, Mo. unless otherwise noted.
Enumeration of GAPs: GAPs were identified as dextran-filled columns measuring approximately 20 μm (height)×5 μm (diameter) traversing the epithelium and containing a nucleus. GAPs were enumerated in the jejunum or mid-transverse colon using Z-stack images of a volume of 225 μm(x) by 250 μm(y) by 50 μm(z) acquired during in vivo 2P imaging as described above. SI GAPs were enumerated as GAPs per villus. When present, colonic GAPs were found on both the surface epithelium and within the crypts, but were enumerated as GAPs per crypt due to difficulty in distinguishing dextran filled GAPs from luminal dextran during in vivo imaging. De-identified and coded video clips were evaluated by a blinded investigator to enumerate GAPS in early life. The number of GAPs per villus and GAPs per crypt seen by 2P imaging were confirmed by immunofluorescence microscopy of tissues that were fixed following 2P imaging. To quantify GAPs per GC, lysine fixable 10,000 MW fluorescent dextran was injected into the lumen and intestines harvested 25 min later. Tissues were fixed with 10% formalin buffered saline for 45 min, sectioned, and stained with antibodies directed against cyt18. GCs were identified cyt18+ epithelial cells with GC morphology and GAPs as dextran containing epithelial cells defined as above.
Intravital two-photon (2P) microscopy: Mice were anesthetized using nebulized isofluorane in 95% O2/5% CO2. Intravital preparation of the intestine was performed as previously described. To detect GAPs, tetramethylrodamine labeled dextran 10,000 MW (10 mg/mL) or fluorescein labeled dextran 10,000 MW (10 mg/mL) and diamidino-2-phenylindole (DAPI; 10 mg/mL) were injected intraluminally 20 minutes prior to imaging and imaging was performed for up to one hour. Tissues were excited using a Ti:sapphire laser tuned to 890 nm (Chameleon XR, Coherent). […]

[2] = dietary Ova DOL 0-30, EGFRi DOL 6 and 8 or DOL 24 and 26

| Molecule | lethargy/hypothermia upon rechallenge with sterile Ova in the footpad (C57BL/6 mice; [2]) | oral tolerance (footpad swelling upon Ova rechallenge) (C57BL/6 mice; [2]) | lethargy/hypothermia upon rechallenge with sterile Ova in the footpad (C57BL/6 mice; dietary Ova DOL 0-30, EGFRi DOL 6 and 8 or DOL 24 and 26, listed as inhibitor of EGFR activation) | GAP formation in SI and colon ([1]; DOL 8 mice (neonatal phase)) | SI GAP formation ([1]; DOL 18 mice) | colonic GAP formation ([1]; DOL 28, post weaning) | GAP formation in the SI and colon ([1]; all phases of early life (DOL8, 18, 28)) | tolerance to luminal Ova (DTH, footpad thickness) (C57BL/6 mice; Ova enemas with EGF every other day DOL 14-22 (post-neonatal phase colon)) | colonic GAP formation / dextran uptake by colonic epithelial cells ([1]; DOL 14 mice (post-neonatal phase), wildtype) | colonic GAP formation ([1]; DOL 18 mice (post-neonatal phase), agent given luminally) | luminal EGF concentration below which colonic and SI GCs formed GAPs (a concentration that inhibits GAPs on short term exposure) ([1]; DOL ~10 (colon) and DOL ~18 (SI)) [µg/mL] |
| --- | --- | --- | --- | --- | --- | --- | --- | --- | --- | --- | --- |
| COc1cc2ncnc(Nc3cccc(Cl)c3)c2cc1OC [EGFRi, tyrphostin AG1478] | lethargic and hypothermic | significantly abrogated | developed hypothermia | induced colonic and SI GAPs | induced | induced | allowed GAP formation in the SI and colon during all phases of early life | – | – | – | – |
| EGF: recombinant murine EGF (Shenandoah); EGFR ligand, given luminally or intracolonically | – | – | – | – | – | – | – | abrogated tolerance to luminal Ova; also recorded: attenuates tolerance to a luminal antigen | inhibited | inhibited GAPs | < 1000 |
